Patent US10800726B2, “Rexinoid compounds and methods of using rexinoid compounds for treating metabolic disorders and cancer” (THE UAB RESEARCH FOUNDATION, priority 2014, dated 2020)

Legend:
[1] = system: estrogen-negative mammary cancers; experiment: DMBA-induced mammary carcinogenesis in transgenic erbB2+/− mice; type: in vivo; settings: orally administered, female transgenic erbB2+/− mice, vs control mice, FIG. 1
Text: FIG. 1 is a graph showing the efficacy of 9-cis-UAB30, TARGRETIN, Compound UAB125, and Compound UAB126 in preventing the formation of mammary cancers in ErbB2^+/− female mice. The first bar represents the controls for 9-cis-UAB30 and TARGRETIN. The fourth bar represents the controls for UAB125 and UAB126.
Mammary carcinogenesis was induced in female, transgenic erbB2^+/− mice using 7,12-Dimethylbenz[a]anthracene (DMBA). The mice were orally administered 9-cis-UAB30 (a tissue selective rexinoid), TARGRETIN® (Valeant Pharmaceuticals, West Laurel, Calif.) (i.e., bexarotene, which is a potent RXR agonist), UAB125, or UAB126. The control mice were not administered any compounds. […] Specifically, UAB125 and UAB126 prevented the formation of 68% and 79%, respectively, of the estrogen-negative mammary cancers, while 9-cis-UAB30 and TARGRETIN® prevented only 54% and 65%, respectively.

[2] = High fat diet-induced obesity: body weight, body composition (QMR), food intake; type: in vivo, C57BL/6J mice
Text: (§1) Twelve C57BL/6J mice were randomly divided into two groups, namely high fat diet (HFD) (60% of calories from fat) fed with or without Compound UAB126 (1.5 g/kg food) for 10 weeks.
(§2) Also, fasting glucose levels in mice fed HFD with Compound UAB126 were lower than mice fed HFD (FIG. 5). […] Food intake was not different between the 2 groups.

[3] = Serum triglyceride, cholesterol and free fatty acids in high fat diet fed mice; type: in vivo, C57BL/6J mice
Text: as §1
Previously developed rexinoids have the adverse side effect of elevating serum triglyceride (TG) level. […] Thus, Compound UAB126 can regulate lipid metabolism.

[4] = Glucose tolerance, insulin sensitivity and fasting glucose in high fat diet fed mice; type: in vivo, C57BL/6J mice; settings: HFD with compound
Text: as §1, §2

[5] = QMR, normalized by body weight, FIG. 6B
[6] = QMR, without normalization, FIG. 6A

## Cc1ccc(-c2cccc(C=CC(=O)O)c2)c2ccccc12 (single isomer, unassigned) [UAB125, 3-(3-(4-methyl-1-naphthyl)phenyl)propenoic acid]
[1]
  prevention of formation of estrogen-negative mammary cancers: 68%

## O=C(O)C=Cc1ccc(-c2cccc3ccccc23)cc1 (single isomer, unassigned) [UAB126, 3-(4-(1-naphthyl)phenyl)propenoic acid]
[2]; HFD (60% of calories from fat) with compound 1.5 g/kg food, 10 weeks, avg. initial 22.5 g, HFD alone: initial 23 g, final 40 g, FIG. 2
  final body weight (avg.): 27.8 g
[2]; HFD with compound 1.5 g/kg food, 10 weeks, FIG. 2
  body weight gain compared to HFD fed mice without compound: gained less body weight
[2]; [5]
  fat mass normalized by body weight, compared to HFD fed mice: less fat mass
  lean mass normalized by body weight, compared to HFD fed mice: more lean mass
[2]; [6]
  fat mass: markedly reduced
  lean mass: slightly reduced
[3]; HFD with compound vs HFD, FIG. 7
  serum triglyceride levels: significantly reduced
[3]; compared to HFD vehicle treated mice, FIG. 8A
  serum cholesterol: significantly decreased
[3]; compared to HFD vehicle treated mice, FIG. 8B
  serum free fatty acids (FFA): significantly decreased
[1]
  prevention of formation of estrogen-negative mammary cancers: 79%
[4]; FIG. 3
  glucose tolerance vs mice fed HFD alone: more glucose tolerant
[4]; FIG. 4
  insulin sensitivity vs mice fed HFD alone: insulin sensitive
[4]; FIG. 5
  fasting glucose levels vs mice fed HFD: lower

## CC(=C/C=C/C(C)=C/C(=O)O)/C=C1\CCCc2ccccc21 [Compound 9-cis-UAB30, reference compound]
[1]
  prevention of formation of estrogen-negative mammary cancers: 54%

## C=C(c1ccc(C(=O)O)cc1)c1cc2c(cc1C)C(C)(C)CCC2(C)C [TARGRETIN, bexarotene, reference compound]
[1]
  prevention of formation of estrogen-negative mammary cancers: 65%
